Results from patent US20230116399A1, “Tumor Homing Statin Derivatives” (Da Zen Theranostics, Inc., priority 2019, published 2023).

Experiments:
[1] = tested on: 22RV1 prostate cancer cells; assay: Cholesterol levels in whole cells and mitochondria (LC-SIM); assay type: cell-based, human
Procedure: Example 3E: Whole cells and mitochondria are prepared/treated as follows. 22RV1 prostate cancer cells are cultured as described herein-above. The cells are harvested, treated with Lithium dodecyl sulfate (LDS) detergent, then a whole cell fraction and an isolated mitochondrial fraction provided by centrifugation and the pellets are processed to determine their cholesterol levels as follows: cholesterol is extracted with hexane/methanol mixture (7:1, v/v), into which an appropriate amount of stable isotope-labeled d7-cholesterol standard (Avanti Polar Lipids) is spiked. Samples are sonicated in a water-bath, vortexed, and centrifuged at 16,000×g for 5 min at RT. The upper layers are dried down in a SpeedVac at RT. Then samples are incubated with 200 μL 10 mg/mL 4-(dimethylamino)phenyl isocyanate (DMAPI) in dichloromethane and 30 μL triethylamine at 65° C. for 1.5 h in a ThermoMixer. The reaction is quenched by phosphate buffer (pH 8.0), followed by extraction of DMAPI-labeled cholesterol with hexane and vacuum concentration in a SpeedVac. The dry residues are reconstituted in acetonitrile/isopropanol (1:1) and analyzed by liquid chromatography-selected ion monitoring (LC-SIM) using an Ultimate 3000 XRS liquid chromatography system connected to an Orbitrap Fusion Lumos mass spectrometer (Thermo Scientific). Following separation on a 5-cm Hypersil GOLD C18 column, DMAPI-derivatized endogenous cholesterol (m/z 549.442) and d7-cholesterol (m/z 556.485) are analyzed by time-scheduled SIM analysis on an Orbitrap Fusion Lumos. The acquired LC-SIM data are analyzed by Skyline for cholesterol quantification.

[2] = tested on: H446 human small cell lung cancer (SCLC) cells; assay: Mouse xenograft model, H446 SCLC; assay type: in vivo, mice; details: 2.8 mg/kg, twice a week via i.p. injection, 52 days
Procedure: Example 10: THSD (ALSD and ELSD, respectively) are tested in vivo in a mouse xenograft model for human lung cancer. The example is essentially performed as described for example 9 with the following modifications: human SCLC H446 cancer cells are used, and the tested agents include two statin conjugates (compounds of formula FId/compound 14 or “DZ2b” and FIId/compound 7 or “DZ2a”, respectively, designated “DZ-SIM-Ester” or “DZ-SIM-Amide” in FIG. 10), and a non-statin conjugate (“DZ-DHA”). SCLC H446 cells (1.5×10^6) are subcutaneously implanted on the bilateral flanks of athymic nude mice at age of 5 weeks. 10 days post cell implantation, mice are treated with DZ1 (2.8 mg/kg), SIM (2 mg/kg), DZ1-SIM-Amide/compound 7 or DZ1-SIM-Ester/compound 14 (4 mg/kg), and DZ1-DHA (4 mg/kg, DZ1-dihydroartemisinin ester “DZ1-DHA”, as shown in FIG. 11), twice a week via i.p. injection. (A) Tumor sizes are measured by caliper every four days during the treatment period of 52 days, and volumes are calculated using formula […] as described in example 9 above. Confidence levels are indicated as *P<0.05, **P<0.01, ***P<0.0005.

| SMILES | Cholesterol, mitochondria ([1]; mitochondrial fraction) | Cholesterol, mitochondria, relative to vehicle control (100%) ([1]; mitochondrial fraction) | Cholesterol, mitochondria, relative to vehicle control (100%) ([1]; mitochondrial fraction, listed as SIM) | Cholesterol, whole cells ([1]; whole cells) | Cholesterol, whole cells, relative to vehicle control (100%) ([1]; whole cells) | Cholesterol, whole cells, relative to vehicle control (100%) ([1]; whole cells, listed as SIM) | mean tumor volume / growth inhibition [2] |
| --- | --- | --- | --- | --- | --- | --- | --- |
| CCC(C)(C)C(=O)O[C@H]1C[C@@H](C)C=C2C=C[C@H](C)[C@H](CC[C@@H]3C[C@@H](O)CC(=O)O3)[C@H]21 [Simvastatin] | 56 nmol Cholesterol per 10^7 cells | 51% | (51%) | 102 nmol Cholesterol per 10^6 cells | 88% | (88%) |  |
| CC1(C)C(/C=C/C2=C(Cl)C(=C/C=C3/N(CCCCCC(=O)O)c4ccccc4C3(C)C)/CCC2)=[N+](CCCCS(=O)(=O)[O-])c2ccccc21 [DZ1] |  |  |  |  |  |  | steep increase in tumor volume |
